Test results taken from patent US20140155415A1, “BENZ[…] BENZODIOXINE COMPOUNDS THAT INTERACT WITH G[…] FOR THE TREATMENT OF DIABETES” (priority 2011, published 2014).

Legend:
[1] = biological target: T1, GK-GKRP (glucokinase / glucokinase regulatory protein) (Homo sapiens, UniProt Q14397); assay: GKRP LC MS/MS Biochemical Assay (LCMS/MS); conditions: formation of 13C-glucose-6-phosphate from 13C-glucose by LC MS/MS, human His-hepatic GK, fructose-6-phosphate
T1 sequence (Q14397 1-625): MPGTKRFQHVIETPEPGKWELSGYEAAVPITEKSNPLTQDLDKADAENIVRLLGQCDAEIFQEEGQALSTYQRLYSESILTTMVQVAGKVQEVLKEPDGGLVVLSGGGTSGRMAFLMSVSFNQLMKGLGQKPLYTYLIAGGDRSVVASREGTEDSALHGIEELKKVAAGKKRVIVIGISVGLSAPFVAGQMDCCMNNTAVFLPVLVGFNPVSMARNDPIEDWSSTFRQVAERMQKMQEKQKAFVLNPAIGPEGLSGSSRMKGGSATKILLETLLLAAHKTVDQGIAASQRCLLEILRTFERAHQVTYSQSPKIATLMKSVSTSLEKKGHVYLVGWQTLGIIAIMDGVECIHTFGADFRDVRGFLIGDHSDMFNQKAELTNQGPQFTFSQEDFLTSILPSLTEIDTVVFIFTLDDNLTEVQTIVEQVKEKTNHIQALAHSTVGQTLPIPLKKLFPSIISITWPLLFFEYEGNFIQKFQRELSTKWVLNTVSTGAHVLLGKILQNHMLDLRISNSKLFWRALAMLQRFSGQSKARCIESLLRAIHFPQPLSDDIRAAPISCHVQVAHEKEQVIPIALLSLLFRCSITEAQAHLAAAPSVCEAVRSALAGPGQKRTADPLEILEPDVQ
Description: GKRP LC MS/MS Biochemical Assay (LCMS/MS)
This assay is used to directly measure the formation of ^13C-glucose-6-phosphate from ^13C-glucose by LC MS/MS. Begin by preparing the following solutions: Compound Buffer (CB): 50 mM Tris, pH 7.5/4 mM MgCl2/6% DMSO/fresh 10 mM DTT from 1M frozen stock. Enzyme Buffer (EB): 50 mM Tris, pH 7.5/4 mM MgCl2/6% DMSO/fresh 0.1% BSA/fresh 0.01% Brij-35 (10% BSA and 1% Brij-35 stock). GK (Glucokinase) Working Stock (5×): Dilute human His-hepatic GK to 30 nM in EB buffer. […] Seal the plate and incubate for 30 minutes at room temperature while mixing. After 30 minutes add 10 μl of GK Working Stock (5×). Re-seal the plate and incubate for another 30 minutes at room temperature while mixing. After the second 30 minutes, stop the reaction by the addition of 50 μl of 100% acetonitrile, seal, and mix for 5-10 minutes. Run 10 μl of this sample through the LC MS/MS (API 3200, Applied Biosystems, Carlsbad, Calif.). […]
(§1) In the Examples, the assays are referred to as “LCMS/MS” or “Binding.”

[2] = biological target: T2, GK-GKRP (interaction between glucokinase and glucokinase regulatory protein) (Homo sapiens, UniProt Q14397); assay: GK-GKRP Binding Assay (Binding), AlphaScreen; conditions: avi-tagged GKRP, GK-fluorescein, AlphaScreen beads, 1 μM sorbitol-6-phosphate; read-out: GK-GKRP IC50 (Binding)
T2 construct: made in house; host or cells: GKRP: baculovirus system
T2 sequence (Q14397 1-625): T1 sequence (Q14397 1-625)
Description: GK-GKRP Binding Assay Protocol (Binding)
This assay is used to directly measure the interaction between glucokinase (GK) and glucokinase regulatory protein (GKRP). Begin by preparing the following solutions. Assay Buffer: 20 mM Tris, pH 7.5/0.05% BSA/1 mM DTT/1 μM sorbitol-6-phosphate. […] Combine the following reagents in a white 96-well half area plate. Pipette 14 μl of the diluted avi-tagged GKRP into each well. Add 1 μl of compound to be tested and incubate at room temperature for 20 minutes. After 20 minutes, add 5 μl of assay buffer containing 6 nM GK-fluorescein. […] Incubate in a dark room for 2 hours at room temperature. After 2 hours read the plate using an Envision plate reader (Perkin Elmer, Waltham Mass.).
Recombinant human glucokinase (hepatic) was purified and formulated in 50 mM Tris (pH 7.5), 150 mM NaCl and 20 mM glucose previous to labeling with fluorescein. […] Unreacted dye was removed by extensive dialysis into the final formulation buffer: 25 mM Tris (pH 7.2), 150 mM NaCl, 10% glycerol and 2 mM DTT. The human glucokinase regulatory protein construct was designed with a C-terminal avitag and was expressed in a baculovirus system. Purified GKRP was incubated overnight with recombinant biotin ligase in the presence of D-biotin, ATP and MgCl2. GKRP was isolated from reaction components by chromatography on a Superdex 200 size exclusion column into: 50 mM HEPES, 150 mM NaCl and 5 mM DTT. […] Proteins were quantitated according to their calculated molar extinction coefficients at A280 and were stored at −80° C.
as §1

Row | EC50 [1] [nM] | IC50 [2] [nM] | SMILES
1 | 270 | 1400 | O=S(=O)(NC(c1ccccn1)c1cc2ccccc2o1)c1ccc2c(c1)OCCCO2 (racemic) [Example 25, N-(1-benzofuran-2-yl(2-pyridinyl)methyl)-3,4-dihydro-2H-1,5-benzo dioxepine-7-sulfonamide]
2 | 190 | 420 | Cc1cccnc1C(NS(=O)(=O)c1ccc2c(c1)OCCCO2)c1cc2ccccc2o1 (racemic) [Example 26, N-(1-benzofuran-2-yl(3-methyl-2-pyridinyl)methyl)-3,4-dihydro-2H-1,5-benzodioxepine-7-sulfonamide]
3 | 990 | 1800 | O=S(=O)(NC(c1ncccn1)c1cc2ccccc2o1)c1ccc2c(c1)OCCCO2 (racemic) [Example 29, N-(1-benzofuran-2-yl(2-pyrimidinyl)methyl)-3,4-dihydro-2H-1,5-benzodioxepine-7-sulfonamide]
4 | 150 | 310 | COc1cccnc1C(NS(=O)(=O)c1ccc2c(c1)OCCCO2)c1cc2ccccc2o1 (racemic) [Example 30, N-(1-benzofuran-2-yl(3-methoxy-2-pyridinyl)methyl)-3,4-dihydro-2H-1,5-benzodioxepine-7-sulfonamide]
5 | 740 | 3200 | O=S(=O)(NC(c1cc2ccccc2o1)c1cccs1)c1ccc2c(c1)OCCCO2 (racemic) [Example 31, N-(1-benzofuran-2-yl(2-thiophenyl)methyl)-3,4-dihydro-2H-1,5-benzodioxepine-7-sulfonamide]
6 | 1200 | 1400 | Cc1ccsc1C(NS(=O)(=O)c1ccc2c(c1)OCCCO2)c1cc2ccccc2o1 (racemic) [Example 33, N-(1-benzofuran-2-yl(3-methyl-2-thiophenyl)methyl)-3,4-dihydro-2H-1,5-benzodioxepine-7-sulfonamide]
7 | 2800 | 6600 | O=S(=O)(NC(c1cc2ccccc2o1)c1nccs1)c1ccc2c(c1)OCCCO2 (racemic) [Example 34, N-(1-benzofuran-2-yl(1,3-thiazol-2-yl)methyl)-3,4-dihydro-2H-1,5-benzodioxepine-7-sulfonamide]
8 | 3100 | 2300 | O=S(=O)(NC(c1ccccc1)c1cc2ccccc2o1)c1ccc2c(c1)OCC(F)CO2 (racemic) [Example 35, N-(1-benzofuran-2-yl(phenyl)methyl)-3-fluoro-3,4-dihydro-2H-1,5-benzodioxepine-7-sulfonamide]
9 | 150 | 290 | Cc1ccccc1C(NS(=O)(=O)c1ccc2c(c1)OCCCO2)c1cc2ccccc2s1 (racemic) [Example 36, N-(1-benzothiophen-2-yl(2-methylphenyl)methyl)-3,4-dihydro-2H-1,5-benzodioxepine-7-sulfonamide]
10 | 160 | 300 | CCc1ccccc1C(NS(=O)(=O)c1ccc2c(c1)OCCCO2)c1cc2ccccc2s1 (racemic) [Example 37, N-(1-benzothiophen-2-yl(2-ethylphenyl)methyl)-3,4-dihydro-2H-1,5-benzodioxepine-7-sulfonamide]
11 | 31 | 25 | C=Cc1ccccc1C(NS(=O)(=O)c1ccc2c(c1)OCCCO2)c1cc2ccccc2s1 (racemic) [Example 38, N-(1-benzothiophen-2-yl(2-ethenylphenyl)methyl)-3,4-dihydro-2H-1,5-benzodioxepine-7-sulfonamide]
12 | 37 | 17 | C#Cc1ccccc1C(NS(=O)(=O)c1ccc2c(c1)OCCCO2)c1cc2ccccc2s1 (racemic) [Example 39, N-(1-benzothiophen-2-yl(2-ethynylphenyl)methyl)-3,4-dihydro-2H-1,5-benzodioxepine-7-sulfonamide]
13 | 46 | 110 | COc1ccccc1C(NS(=O)(=O)c1ccc2c(c1)OCCCO2)c1cc2ccccc2s1 (racemic) [Example 40, N-(1-benzothiophen-2-yl(2-methoxyphenyl)methyl)-3,4-dihydro-2H-1,5-benzodioxepine-7-sulfonamide]
14 | 27 | 57 | CSc1ccccc1C(NS(=O)(=O)c1ccc2c(c1)OCCCO2)c1cc2ccccc2s1 (racemic) [Example 41, N-(1-benzothiophen-2-yl(2-(methylsulfanyl)phenyl)methyl)-3,4-dihydro-2H-1,5-benzodioxepine-7-sulfonamide]
15 | 47 | 41 | COc1cccnc1C(NS(=O)(=O)c1ccc2c(c1)OCCCO2)c1cc2ccccc2s1 (racemic) [Example 43, N-(1-benzothiophen-2-yl(3-methoxy-2-pyridinyl)methyl)-3,4-dihydro-2H-1,5-benzodioxepine-7-sulfonamide]
16 | 480 | 1000 | Cc1c(C(NS(=O)(=O)c2ccc3c(c2)OCCCO3)c2ccccc2)oc2ccccc12 (racemic) [Example 44, N-((3-methyl-1-benzofuran-2-yl)(phenyl)methyl)-3,4-dihydro-2H-1,5-benzodioxepine-7-sulfonamide]
17 | 2000 | 1700 | Cc1ccccc1C(NS(=O)(=O)c1ccc2c(c1)OCCCO2)c1oc2ccccc2c1C (racemic) [Example 45, N-((3-methyl-1-benzofuran-2-yl)(2-methylphenyl)methyl)-3,4-dihydro-2H-1,5-benzodioxepine-7-sulfonamide]
18 | 220 | 360 | O=S(=O)(NC(c1ccccc1)c1cc2cccnc2s1)c1ccc2c(c1)OCCCO2 (racemic) [Example 46, N-(phenyl(thieno[2,3-b]pyridin-2-yl)methyl)-3,4-dihydro-2H-1,5-benzodioxepine-7-sulfonamide]
19 | 59 | 27 | COc1ccccc1C(NS(=O)(=O)c1ccc2c(c1)OCCCO2)c1cc2cccnc2s1 (racemic) [Example 47, N-((2-methoxyphenyl)(thieno[2,3-b]pyridin-2-yl)methyl)-3,4-dihydro-2H-1,5-benzodioxepine-7-sulfonamide]
20 | 22 | 10 | CSc1ccccc1C(NS(=O)(=O)c1ccc2c(c1)OCCCO2)c1cc2cccnc2s1 (racemic) [Example 48, N-((2-(methylsulfanyl)phenyl)(thieno[2,3-b]pyridin-2-yl)methyl)-3,4-dihydro-2H-1,5-benzodioxepine-7-sulfonamide]
21 | 150 | 93 | COc1cccnc1C(NS(=O)(=O)c1ccc2c(c1)OCCCO2)c1cc2cccnc2s1 (racemic) [Example 49, N-((3-methoxy-2-pyridinyl)(thieno[2,3-b]pyridin-2-yl)methyl)-3,4-dihydro-2H-1,5-benzodioxepine-7-sulfonamide]
22 | 480 | 410 | COc1cnccc1C(NS(=O)(=O)c1ccc2c(c1)OCCCO2)c1cc2cccnc2s1 (racemic) [Example 50, N-((3-methoxy-4-pyridinyl)(thieno[2,3-b]pyridin-2-yl)methyl)-3,4-dihydro-2H-1,5-benzodioxepine-7-sulfonamide]
